Experimental data: ChEMBL document CHEMBL1201862, “PubChem BioAssay data set” (2004)
The source made the active and inactive calls.

Key:
Aspartyl aminopeptidase = target: T1, Aspartyl aminopeptidase (Plasmodium falciparum 3D7, UniProt Q8I2J3)
T1 sequence (Q8I2J3 whole entry): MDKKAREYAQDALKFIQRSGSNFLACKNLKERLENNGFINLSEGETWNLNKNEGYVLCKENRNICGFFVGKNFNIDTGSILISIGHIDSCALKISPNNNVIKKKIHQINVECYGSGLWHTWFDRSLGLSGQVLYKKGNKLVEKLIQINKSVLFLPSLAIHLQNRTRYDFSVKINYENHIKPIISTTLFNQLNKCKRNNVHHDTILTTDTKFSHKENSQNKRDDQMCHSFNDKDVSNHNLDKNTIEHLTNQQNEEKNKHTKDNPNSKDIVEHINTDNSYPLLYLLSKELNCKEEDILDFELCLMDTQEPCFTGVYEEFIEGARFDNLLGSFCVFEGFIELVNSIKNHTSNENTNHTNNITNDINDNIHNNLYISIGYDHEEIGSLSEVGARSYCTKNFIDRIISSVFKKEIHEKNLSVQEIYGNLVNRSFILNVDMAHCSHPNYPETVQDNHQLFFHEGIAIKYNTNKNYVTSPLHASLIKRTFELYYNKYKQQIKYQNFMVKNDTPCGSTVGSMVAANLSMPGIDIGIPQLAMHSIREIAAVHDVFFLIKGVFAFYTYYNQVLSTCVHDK

Procathepsin L = Procathepsin L (Homo sapiens, UniProt P07711)
Procathepsin L, sequence (P07711 whole entry): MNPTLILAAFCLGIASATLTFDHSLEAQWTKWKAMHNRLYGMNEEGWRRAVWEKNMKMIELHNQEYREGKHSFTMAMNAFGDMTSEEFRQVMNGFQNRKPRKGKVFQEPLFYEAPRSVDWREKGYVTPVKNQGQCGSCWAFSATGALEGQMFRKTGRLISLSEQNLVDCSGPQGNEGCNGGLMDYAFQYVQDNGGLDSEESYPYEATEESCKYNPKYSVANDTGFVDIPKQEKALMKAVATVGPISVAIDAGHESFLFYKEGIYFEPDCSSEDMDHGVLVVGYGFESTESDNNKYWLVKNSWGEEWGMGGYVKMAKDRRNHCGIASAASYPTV

HEK293 = assay: Fluorescence-based counterscreen for potentiators or agonists of NPY-Y2: cell-based high-throughput dose response assay to identify inhibitors of cyclic nucleotide gated ion channel (CNGC) activity. In this assay, the parental HEK293 cell line transfected with a cyclic-nucleotide gated ion channel (CNGC)-based cAMP sensor is used to measure inhibition of isoproterenol-induced CNGC activity by test compound.; type: functional; conditions: Homo sapiens;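 note: stimulus is 1 µM isoproterenol at EC100 plus PDE inhibitor Ro 20-1724 at 25 µM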
[1] = target: T2, Neuropeptide Y receptor type 2 (Homo sapiens, UniProt P49146); assay: Fluorescence-based cell-based high-throughput dose response assay for agonists of NPY-Y2. [Related pubchem assays: 1703 (Screening assay (CNGC inhibitors).), 1359 (Screening assay (NPY-Y2 potentiators or agonists).), 1304 (Screening assay (NPY-Y1 potentiators or agonists).), 1710 (Screening assay (NPY-Y2 agonists).), 1791 (Summary AID.)]; type: functional
T2 sequence (P49146 whole entry): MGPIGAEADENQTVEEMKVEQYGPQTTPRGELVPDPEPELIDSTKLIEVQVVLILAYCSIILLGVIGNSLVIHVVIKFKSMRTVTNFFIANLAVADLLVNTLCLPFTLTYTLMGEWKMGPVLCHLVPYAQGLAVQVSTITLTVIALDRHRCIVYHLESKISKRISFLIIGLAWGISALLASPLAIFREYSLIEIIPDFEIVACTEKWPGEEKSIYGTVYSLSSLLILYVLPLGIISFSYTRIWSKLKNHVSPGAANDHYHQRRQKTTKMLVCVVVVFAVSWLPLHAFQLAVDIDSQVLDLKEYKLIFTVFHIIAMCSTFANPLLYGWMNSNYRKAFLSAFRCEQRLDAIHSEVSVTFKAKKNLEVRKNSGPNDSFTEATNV

[2] = target: T3, Neuropeptide Y receptor type 1 (Homo sapiens, UniProt P25929); assay: Fluorescence-based counterscreen for agonists of NPY-Y2: cell-based high-throughput dose response assay for agonists of NPY-Y1.; type: functional
T3 sequence (P25929 whole entry): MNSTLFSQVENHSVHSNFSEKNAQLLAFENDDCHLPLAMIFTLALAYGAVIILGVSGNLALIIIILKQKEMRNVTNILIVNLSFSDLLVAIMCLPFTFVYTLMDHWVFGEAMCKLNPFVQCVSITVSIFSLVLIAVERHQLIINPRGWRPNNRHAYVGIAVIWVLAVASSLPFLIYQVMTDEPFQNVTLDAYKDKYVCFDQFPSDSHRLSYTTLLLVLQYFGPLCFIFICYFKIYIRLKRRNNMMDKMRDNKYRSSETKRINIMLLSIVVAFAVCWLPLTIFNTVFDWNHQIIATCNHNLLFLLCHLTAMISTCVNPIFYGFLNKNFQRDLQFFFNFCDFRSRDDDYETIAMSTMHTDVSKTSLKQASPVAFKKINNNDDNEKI

BJ [3] = assay: cytotoxicity toward BJ-TERT fibroblasts, dose response, cell-based, RAS-independent, luminescence (AID 1933); type: functional; conditions: Homo sapiens
[4] = target: T4, Luciferin 4-monooxygenase (Photinus pyralis, UniProt P08659); assay: Counter Screen for Luciferase-based Assay Positives. [Related pubchem assays: 620, 618, 411 ]
T4 sequence (P08659 whole entry): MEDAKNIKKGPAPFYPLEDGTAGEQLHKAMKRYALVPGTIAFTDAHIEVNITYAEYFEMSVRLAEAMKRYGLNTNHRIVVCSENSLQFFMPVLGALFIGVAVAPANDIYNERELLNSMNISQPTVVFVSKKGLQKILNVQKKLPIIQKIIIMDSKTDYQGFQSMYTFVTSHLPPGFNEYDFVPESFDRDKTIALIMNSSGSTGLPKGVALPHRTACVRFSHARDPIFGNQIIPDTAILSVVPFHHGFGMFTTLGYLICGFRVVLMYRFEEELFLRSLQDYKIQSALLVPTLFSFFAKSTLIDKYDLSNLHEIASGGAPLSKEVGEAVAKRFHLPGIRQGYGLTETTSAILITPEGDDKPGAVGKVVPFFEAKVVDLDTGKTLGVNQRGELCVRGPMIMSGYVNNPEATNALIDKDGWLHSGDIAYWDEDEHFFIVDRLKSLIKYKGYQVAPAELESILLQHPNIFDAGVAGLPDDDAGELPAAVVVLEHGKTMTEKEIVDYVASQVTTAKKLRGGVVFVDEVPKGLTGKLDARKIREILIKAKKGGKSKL

BJ [5] = assay: cells; type: functional, cell-based; conditions: Homo sapiens
[6] = target: T4, Luciferin 4-monooxygenase; assay: firefly luciferase enzyme inhibitors, dose response, biochemical, luminescence (AID 1891)
[7] = Luminescence Cell-Based Dose Confirmation HTS to Identify Inhibitors of Platelet Dense Granule Release. [Related pubchem assays: 1663 (Primary HTS), 1678 (Summary of Project)]; type: functional
HT-1080 = assay: cytotoxicity in HT1080 fibrosarcoma cells, cell-based, fluorescence readout (AID 620); type: functional; conditions: Homo sapiens
BJ [8] = assay: cytotoxicity toward BJ-TERT-LT-ST fibroblasts, dose response, cell-based, RAS-independent, luminescence (AID 1935); type: functional; conditions: Homo sapiens;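 note: BJ fibroblasts immortalized with TERT plus LT and ST oncogenes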
[9] = cytotoxicity toward DRD oncogenic fibroblasts, dose response, cell-based, non-viral oncogenic, luminescence (AID 1934); type: functional; conditions: Homo sapiens
[10] = target: Cyclin-dependent kinase 5/CDK5 activator 1 (Homo sapiens, UniProt Q00535); assay: CDK5/p35 kinase inhibitors, dose response, biochemical, cherry-picked samples, set 2 (AID 504545)
Cyclin-dependent kinase 5/CDK5 activator 1, sequence (Q00535 whole entry): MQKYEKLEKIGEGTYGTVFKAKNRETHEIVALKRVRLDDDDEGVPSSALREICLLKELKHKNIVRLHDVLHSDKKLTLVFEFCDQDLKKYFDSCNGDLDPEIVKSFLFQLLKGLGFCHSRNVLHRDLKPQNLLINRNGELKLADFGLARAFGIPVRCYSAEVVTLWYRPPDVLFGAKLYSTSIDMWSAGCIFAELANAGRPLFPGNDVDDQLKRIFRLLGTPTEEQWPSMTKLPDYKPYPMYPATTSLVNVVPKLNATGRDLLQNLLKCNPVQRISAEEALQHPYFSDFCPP
Cyclin-dependent kinase 5/CDK5 activator 1, sequence (Q15078 whole entry, further chain): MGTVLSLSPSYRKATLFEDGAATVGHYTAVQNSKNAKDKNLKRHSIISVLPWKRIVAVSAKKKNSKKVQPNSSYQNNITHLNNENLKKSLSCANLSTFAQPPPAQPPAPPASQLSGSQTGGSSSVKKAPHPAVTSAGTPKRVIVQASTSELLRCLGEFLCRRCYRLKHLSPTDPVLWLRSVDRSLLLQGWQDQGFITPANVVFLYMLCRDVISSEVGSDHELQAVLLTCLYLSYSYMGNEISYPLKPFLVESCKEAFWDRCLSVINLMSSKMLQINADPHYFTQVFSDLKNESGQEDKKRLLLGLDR

BJ [11] = assay: cytotoxicity toward Ras-transformed BJeLR fibroblasts, dose response, cell-based, alamar blue fluorescence, cherrypicked samples (AID 2631); type: functional; conditions: Homo sapiens;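 note: confirmatory dose-response assay in RAS-dependent BJ fibroblasts engineered with TERT, LT and ST, with cytotoxicity read by fluorescence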
NS3 = NS3 (Hepatitis C virus, UniProt A3EZJ3); assay: PubChem AID 2173; parameters: species or system Hepacivirus hominis
NS3, sequence (A3EZJ3 whole entry): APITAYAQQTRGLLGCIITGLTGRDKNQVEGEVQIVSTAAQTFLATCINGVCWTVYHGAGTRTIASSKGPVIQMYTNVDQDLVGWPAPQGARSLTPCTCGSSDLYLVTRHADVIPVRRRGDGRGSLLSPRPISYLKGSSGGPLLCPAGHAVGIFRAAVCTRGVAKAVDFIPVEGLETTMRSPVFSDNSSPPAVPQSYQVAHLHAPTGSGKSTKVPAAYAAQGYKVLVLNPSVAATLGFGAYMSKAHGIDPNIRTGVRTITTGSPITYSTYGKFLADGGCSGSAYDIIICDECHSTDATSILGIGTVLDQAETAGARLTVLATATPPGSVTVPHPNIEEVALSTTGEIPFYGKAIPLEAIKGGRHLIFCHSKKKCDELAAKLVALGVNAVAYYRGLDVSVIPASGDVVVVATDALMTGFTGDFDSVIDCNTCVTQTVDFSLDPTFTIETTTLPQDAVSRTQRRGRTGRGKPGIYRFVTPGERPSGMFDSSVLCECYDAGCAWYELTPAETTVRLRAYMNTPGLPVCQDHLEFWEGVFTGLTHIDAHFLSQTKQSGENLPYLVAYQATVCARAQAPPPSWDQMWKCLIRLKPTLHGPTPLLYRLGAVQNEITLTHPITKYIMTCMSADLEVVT

fMet-Leu-Phe receptor = target: T5, fMet-Leu-Phe receptor (Homo sapiens, UniProt P21462); assay: FPR ligands, dose response (AID 519); type: functional
T5 sequence (P21462 whole entry): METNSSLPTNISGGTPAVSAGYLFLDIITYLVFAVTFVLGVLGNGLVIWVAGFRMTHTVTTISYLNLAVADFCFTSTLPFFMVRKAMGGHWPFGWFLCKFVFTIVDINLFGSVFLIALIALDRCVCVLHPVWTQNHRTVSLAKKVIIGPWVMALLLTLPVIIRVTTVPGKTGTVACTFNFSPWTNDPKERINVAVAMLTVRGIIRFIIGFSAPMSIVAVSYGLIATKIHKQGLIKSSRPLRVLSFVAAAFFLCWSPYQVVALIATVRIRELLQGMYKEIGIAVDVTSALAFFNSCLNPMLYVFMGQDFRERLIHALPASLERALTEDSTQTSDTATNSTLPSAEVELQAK

Staphylococcus aureus = assay: Inhibitors of Bacterial Quorum Sensing Structure Activity Relationship (SAR) Analysis: Dose Response Assay. [Related pubchem assays: 700, 527 ]; type: functional, organism-based
[12] = A Cell Based Secondary Assay To Explore Cytotoxicity of Compounds that Sensitize Mycobacterium Tuberculosis to Beta-Lactam Antibiotics.; type: functional
Aminopeptidase N = target: T6, Aminopeptidase N (Plasmodium falciparum FcB1/Columbia, UniProt O96935); assay: P. falciparum M1AAP inhibitors, biochemical, fluorogenic H-Leu-NHMec substrate, 1536-well (AID 1445); parameters: species or system Plasmodium falciparum 3D7, 3D7
T6 sequence (O96935 whole entry): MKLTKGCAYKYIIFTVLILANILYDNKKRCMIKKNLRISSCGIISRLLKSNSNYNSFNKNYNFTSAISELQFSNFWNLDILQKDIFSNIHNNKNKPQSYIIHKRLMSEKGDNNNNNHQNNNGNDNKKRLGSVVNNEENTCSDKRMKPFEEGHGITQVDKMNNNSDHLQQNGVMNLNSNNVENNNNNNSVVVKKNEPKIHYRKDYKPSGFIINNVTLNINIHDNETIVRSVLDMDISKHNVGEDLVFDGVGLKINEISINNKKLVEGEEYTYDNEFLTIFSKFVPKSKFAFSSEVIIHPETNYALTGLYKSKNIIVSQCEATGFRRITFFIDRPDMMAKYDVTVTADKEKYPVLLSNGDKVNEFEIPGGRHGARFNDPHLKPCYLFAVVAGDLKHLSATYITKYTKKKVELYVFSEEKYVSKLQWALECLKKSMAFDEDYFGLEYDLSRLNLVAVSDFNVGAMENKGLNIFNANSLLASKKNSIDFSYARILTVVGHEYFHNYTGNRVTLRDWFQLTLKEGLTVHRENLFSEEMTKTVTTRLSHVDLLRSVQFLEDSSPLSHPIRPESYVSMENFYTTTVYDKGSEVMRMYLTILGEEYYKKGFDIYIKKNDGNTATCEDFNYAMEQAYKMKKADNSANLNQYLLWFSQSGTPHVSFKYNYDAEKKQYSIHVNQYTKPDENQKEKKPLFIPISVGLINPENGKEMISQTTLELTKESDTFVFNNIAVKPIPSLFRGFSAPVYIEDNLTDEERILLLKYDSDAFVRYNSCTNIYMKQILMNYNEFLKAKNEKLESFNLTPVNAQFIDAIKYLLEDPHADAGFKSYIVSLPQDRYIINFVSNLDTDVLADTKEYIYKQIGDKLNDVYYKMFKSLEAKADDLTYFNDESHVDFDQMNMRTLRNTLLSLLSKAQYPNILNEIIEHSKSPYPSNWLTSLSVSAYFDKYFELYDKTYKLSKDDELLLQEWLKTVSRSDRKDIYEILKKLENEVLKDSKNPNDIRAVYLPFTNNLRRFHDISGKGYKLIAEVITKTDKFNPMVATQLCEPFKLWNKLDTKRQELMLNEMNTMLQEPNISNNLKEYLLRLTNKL

[13] = HIV-1 Env-mediated cell fusion inhibitors, dose response, CCR5-tropic Env (AID 2279); type: functional
[14] = target: T7, Short transient receptor potential channel 4 (Mus musculus, UniProt Q9QUQ5); assay: mouse TRPC4 channel inhibitors, dose response, cell-based, HEK293 TRPC4/mu-opioid, Fluo-4 calcium (AID 434942); type: functional;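 note: potency of inhibitors blocking the TRPC4 calcium response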
T7 sequence (Q9QUQ5 whole entry): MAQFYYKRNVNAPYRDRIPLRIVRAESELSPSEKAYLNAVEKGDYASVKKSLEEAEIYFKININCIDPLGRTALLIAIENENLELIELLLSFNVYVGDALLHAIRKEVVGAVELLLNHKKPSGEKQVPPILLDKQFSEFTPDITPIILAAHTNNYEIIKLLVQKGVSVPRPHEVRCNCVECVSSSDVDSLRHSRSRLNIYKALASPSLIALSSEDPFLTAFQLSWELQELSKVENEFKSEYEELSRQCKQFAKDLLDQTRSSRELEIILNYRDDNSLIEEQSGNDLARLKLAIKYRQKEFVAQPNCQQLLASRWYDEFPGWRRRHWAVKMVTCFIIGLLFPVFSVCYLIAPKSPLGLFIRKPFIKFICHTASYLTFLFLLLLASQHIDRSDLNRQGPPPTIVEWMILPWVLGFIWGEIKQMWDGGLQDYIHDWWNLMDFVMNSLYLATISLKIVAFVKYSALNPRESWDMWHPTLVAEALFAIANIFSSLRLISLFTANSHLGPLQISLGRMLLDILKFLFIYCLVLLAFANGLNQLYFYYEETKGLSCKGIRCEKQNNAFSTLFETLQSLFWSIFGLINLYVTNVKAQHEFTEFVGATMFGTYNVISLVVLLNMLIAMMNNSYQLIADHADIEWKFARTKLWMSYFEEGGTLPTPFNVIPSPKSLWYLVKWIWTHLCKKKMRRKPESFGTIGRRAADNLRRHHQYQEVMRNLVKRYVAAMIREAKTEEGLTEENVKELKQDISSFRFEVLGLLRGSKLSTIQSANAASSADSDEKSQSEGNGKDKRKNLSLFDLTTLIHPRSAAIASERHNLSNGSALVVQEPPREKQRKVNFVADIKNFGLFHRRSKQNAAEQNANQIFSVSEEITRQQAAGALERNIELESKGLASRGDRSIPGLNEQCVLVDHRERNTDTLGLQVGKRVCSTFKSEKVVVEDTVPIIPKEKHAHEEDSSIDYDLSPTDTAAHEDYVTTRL

O=C(O)c1ccc(O)c(O)c1 [PROTOCATECHUIC ACID]
IC50 (Aspartyl aminopeptidase): 0.479 µM (active)
IC50 (Procathepsin L): > 59.6 µM (not active)

NC(=O)c1ccc2nc(NC(=O)c3ccc(N)cc3)sc2c1
EC50 (HEK293): > 35.4 µM (not active)
EC50 [1]: > 35.4 µM (not active)
EC50 [2]: > 35.4 µM (not active)

COc1ccc(-c2cc3nc(C)cc(N)n3n2)cc1
EC50 (BJ [3]): 3.85 µM (inconclusive)
EC50 [4]: 2.85 µM (active)
EC50 (BJ [5]): 4.45 µM (active)
EC50 [6]: 0.513 µM (active)
EC50 [7]: 0.621 µM (active)
EC50 (HT-1080): > 50 µM (not active)
EC50 (BJ [8]): 17.6 µM (active)
EC50 [9]: 6.14 µM (active)
AC50 [10]: 17.5 µM (active)
EC50 (BJ [11]): > 133 µM (inactive)

CCOc1ccc(C(=O)C2=C(O)C(=O)N(c3nc(C)c(C)s3)C2c2ccco2)cc1 (configuration not stated)
IC50 (NS3): 6.35 µM (active)
Ki (fMet-Leu-Phe receptor): 57.7 µM (inactive)

CCc1oc2ccccc2c1C(=O)c1ccc(O)cc1 [BENZARONE]
IC50 (Staphylococcus aureus): 1.29 µM (active)

O=C1/C(=C/c2ccncc2)CCc2ccccc21
CC50 [12]: 35.4 µM (active)

COc1cc(/C=C2\SC(=O)N(c3ccccc3Cl)C2=O)cc([N+](=O)[O-])c1O
IC50 (Aminopeptidase N): 65.8 µM (active)
IC50 [13]: 42.5 µM (active)
EC50 [14]: 1.06 µM (active)
